Results from patent US9303009B2, “Migrastatins and uses thereof” (Sloan-Kettering Institute for Cancer Research, priority 2011, dated 2016).

What was measured:
[1] = test system: CAG multiple myeloma cells; test: multiple myeloma transwell migration towards SDF-1α; assay type: cell-based; details: pretreatment 8 h, transmigration 6 h
Experimental: (§1) Multiple myeloma cell chemotaxis was performed towards a SDF-1α in a modified Boyden chamber consisting of a cell culture insert (4.26 mm diameter, 8-μm pore polyester membrane) seated in each well of a 96-well plate (HTS Transwell-96 System, Corning). Briefly, multiple myeloma cells were grown as subconfluent cultures then starved for 24 hours in serum-free IMDM medium. Single-cell suspensions were prepared by mechanical dissociation, then the cells were counted and a total of 5.10^4 cells suspended in serum-free IMDM medium were seeded into the upper chamber, then positioned in a 96-well plate, containing medium with or without SDF-1α (at 200 ng/mL). […] Migrastatin analogs or DMSO (vehicle) were added to the medium at 0.5% in both chambers. Migration assays were carried out for 6 hours in a humidified incubator at 37° C. with 5% CO2. At the assay endpoint, the inserts were removed and the migrating cells were counted in the well. The migration in response to the test condition was calculated relative to the DMSO vehicle control.

[2] = test system: H929 multiple myeloma cells; test: as above; assay type: cell-based; details: pretreatment 8 h, transmigration 6 h
Experimental: as §1

[3] = test system: multiple myeloma (RPMI8226, MM1S, ARP-GL, CAG-GL, OPM2-GL, SKO-007-GL, U266-GL, MM1R cells); test: toxicity by alamarBlue, multiple myeloma cell lines; assay type: cell-based, human; details: mean of 8 cell lines
Experimental: (§2) The toxicity of compounds 42-45 and their IC50 was determined on a panel of human tumor cell lines of multiple myeloma (RPMI8226, MM1S, MM1R, ARP-GL, CAG-GL, OPM2-GL, SKO-007-GL, U266-GL,) and lung cancer (H299-GL, H522-GL, H647-GL, A549-GL, A549-GL, HI993, H1075-GL, HI373, H17030) origin. Tumor cells were dissociated into a single-cell suspension by Trypsin/Collagenase IV treatment and 500 cells per well were aliquoted into each well of 384 microwell plates in 50 μl of RPMI medium with 10% FCS. Compounds 42-45 were dissolved in DMSO and serially diluted in RPMI medium plus 10% FCS and added (1 mM to 1 nM) to quadruplicate wells containing tumor cells. Dilutions of DMSO without compound were used as a control. After 18 hrs or 2 days, the cultures were pulsed with 6 μl of alamarBlue® (Invitrogen Inc. Grand Island, N.Y.) and incubated overnight. The alamarBlue® provides a cell growth indicator based on detection of metabolic activity. The assay system incorporates an oxidation-reduction indicator that both fluoresces and changes color in response to chemical reduction of growth medium resulting from cell growth. The fluorescence intensity was measured using a Synergy H1 Microplate Reader (Biotek Inc, Winooski, VT) and a dose-response curve established for IC50 determination.

[4] = test system: lung cancer (H299-GL, H522-GL, H647-GL, A549-GL, H1993, H1075-GL, H1373-GL H1703 cells); test: toxicity by alamarBlue, lung cancer cell lines; assay type: cell-based; details: mean of 8 cell lines
Experimental: Dilutions of DMSO without compound were used as a control. After 18 hrs or 2 days, the cultures were pulsed with 6 μl of alamarBlue® (Invitrogen Inc. Grand Island, N.Y.) and incubated overnight. The alamarBlue® provides a cell growth indicator based on detection of metabolic activity. The assay system incorporates an oxidation-reduction indicator that both fluoresces and changes color in response to chemical reduction of growth medium resulting from cell growth. The fluorescence intensity was measured using a Synergy H1 Microplate Reader (Biotek Inc, Winooski, VT) and a dose-response curve established for IC50 determination.

[5] = test system: human tumor cell lines of multiple myeloma and lung cancer; test: toxicity by alamarBlue, whole panel; assay type: cell-based
Experimental: as §2

## COC(=O)CO[C@H]1[C@H](C)/C=C(/C)COCCCCC/C=C/[C@@H]1OC [Compound 42]
[1]; 5 μM
  % of migration relative to DMSO control: 93.63%
[1]; 250 μM
  % of migration relative to DMSO control: 0.23%
[2]; 5 μM
  % of migration relative to DMSO control: 91.03%
[2]; 250 μM
  % of migration relative to DMSO control: 7.08%
[3]; 18 h exposure
  Estimated lethal doses (LD50): 515.2 µM
[3]; 48 h exposure
  Estimated lethal doses (LD50): 476.4 µM
[4]; 18 h exposure
  Estimated lethal doses (LD50): 741.2 µM
[4]; 48 h exposure
  Estimated lethal doses (LD50): 602.7 µM
[5]
  IC50: 300 to 795 µM

## CNC(=O)CO[C@H]1[C@H](C)/C=C(/C)COCCCCC/C=C/[C@@H]1OC [Compound 44]
[1]; 5 μM
  % of migration relative to DMSO control: 86.22%
[1]; 250 μM
  % of migration relative to DMSO control: 0.05%
[2]; 5 μM
  % of migration relative to DMSO control: 81.48%
[2]; 250 μM
  % of migration relative to DMSO control: 4.06%
[3]; 18 h exposure
  Estimated lethal doses (LD50): 182.5 µM
[3]; 48 h exposure
  Estimated lethal doses (LD50): 210.6 µM
[4]; 18 h exposure
  Estimated lethal doses (LD50): 299.7 µM
[4]; 48 h exposure
  Estimated lethal doses (LD50): 316.7 µM
[5]
  IC50: 300 to 795 µM

## CCNC(=O)O[C@H]1[C@H](C)/C=C(/C)COCCCCC/C=C/[C@@H]1OC [Compound 45]
[1]; 5 μM
  % of migration relative to DMSO control: 54.48%
[1]; 250 μM
  % of migration relative to DMSO control: 0.58%
[2]; 5 μM
  % of migration relative to DMSO control: 62.38%
[2]; 250 μM
  % of migration relative to DMSO control: 5.51%
[3]; 18 h exposure
  Estimated lethal doses (LD50): 275.6 µM
[3]; 48 h exposure
  Estimated lethal doses (LD50): 217.3 µM
[4]; 18 h exposure
  Estimated lethal doses (LD50): 446.9 µM
[4]; 48 h exposure
  Estimated lethal doses (LD50): 446.8 µM
[5]
  IC50: 300 to 795 µM

## CO[C@H]1/C=C/CCCCCOC/C(C)=C\[C@@H](C)[C@@H]1OCCO [Compound 43]
[1]; 5 μM
  % of migration relative to DMSO control: 82.04%
[1]; 250 μM
  % of migration relative to DMSO control: 0.71%
[2]; 5 μM
  % of migration relative to DMSO control: 52.26%
[2]; 250 μM
  % of migration relative to DMSO control: 0.98%
[3]; 18 h exposure
  Estimated lethal doses (LD50): 530.8 µM
[3]; 48 h exposure
  Estimated lethal doses (LD50): 406.1 µM
[4]; 18 h exposure
  Estimated lethal doses (LD50): 523.9 µM
[4]; 48 h exposure
  Estimated lethal doses (LD50): 510.7 µM
[5]
  IC50: 300 to 795 µM
